From patent publication US5629332A, “Triazole compound and use thereof” (Nihon Nohyaku Co., Ltd., priority 1994, dated 1997)

Columns and labels:
[1] = test system: Candida albicans IFO 1270; assay: growth inhibition of Candida albicans IFO 1270 in culture (Test Example 1, Table 2); type: cell-based; conditions: 37° C., Sabouraud's glucose broth; for Growth inhibition ratio (%) 0.1 μg/ml / inhibition of growth at 0.1 µg/mL: final compound concentration 0.1 μg/ml; for Growth inhibition ratio (%) 0.1 μg/ml / Growth inhibition ratio (%) 10 μg/ml: 48 hrs; for Growth inhibition ratio (%) 10 μg/ml / inhibition of growth at 10 µg/mL: final compound concentration 10 μg/ml; for inhibition of growth at 0.1 µg/mL / inhibition of growth at 10 µg/mL: Candida albicans, IFO1270, 48 h; for inhibition of growth at 0.1 µg/mL: read-out: Growth inhibition ratio (%) 0.1 μg/ml; for inhibition of growth at 10 µg/mL: read-out: Growth inhibition ratio (%) 10 μg/ml
Experimental: A 0.1 ml portion of a cell suspension of Candida albicans IFO 1270 (1.0×10^7 cells/ml) and a 0.1 ml portion of each test compound dissolved in dimethylsulfoxide were added to 9.8 ml of Sabouraudp's glucose broth.
Final compound concentrations in the culture were 10 μg/ml or 0.1 μg/ml. After incubation On a reciprocal shaker at 37° C. for 48 hrs, growth inhibition ratio of each test compound was measured.

C. albicans IFO 1270 = assay: survival of mice after intravenous inoculation with C. albicans, oral treatment (Test Example 2, Table 3); type: in vivo; conditions: 10 mg/kg orally once a day for 3 consecutive days, 10 days after inoculation, male ddy mice; for responders at 10 mg/kg: Candida albicans, IFO1270, po, 240 h, read-out: Survival ratio (%)
Experimental: Male ddy mice at six weeks of age were divided into a control group of 10 animals and drug administration groups of 5 animals each.
Subculture was carried out at 37° C. for 24 hrs Sabouraudp's glucose agar (manufactured by Difco laboratory).
A cell suspension of C. albicans IFO 1270 (2.5×10^7 cells/ml) was intravenously inoculated in an amount of 4 ml/kg, and each test compound was orally administered in a dose of 10 mg/kg once a day for 3 consecutive days. Examination of survival ratio was carried out 10 days after the inoculation of fungi.

Compound | Growth inhibition ratio (%) 0.1 μg/ml [1] | Growth inhibition ratio (%) 10 μg/ml [1] | Survival ratio (%) (C. albicans IFO 1270) | inhibition of growth at 0.1 µg/mL [1] | inhibition of growth at 10 µg/mL [1] | responders at 10 mg/kg (C. albicans IFO 1270)
2-(2,4-difluorophenyl)-2-[1-methyl-2-(4-fluorophenyl)-ethyl]-1-triazolyl-2-ethanol [compound 11] | 45% | 74% | 60% |  |  | 
CC(=O)N1CCN(c2ccc(OC[C@H]3CO[C@](Cn4ccnc4)(c4ccc(Cl)cc4Cl)O3)cc2)CC1 (relative stereo) [Control drug A, cis1-acetyl-4-[4-[[2-(2,4-dichlorophenyl)-2-(imidazol-1-ylmethyl)-1,3-dioolan-4-yl]methoxy]phenyl]piperazine, reference compound] |  |  |  | 59% | 77% | 20%
CC(Cc1ccc(C#N)cc1)C(O)(Cn1cncn1)c1ccc(F)cc1F (single isomer, unassigned) [compound 8, 1-triazolyl-2-(2,4-difluorophenyl)-3-methyl-4-(4-cyanophenyl)-2-butanol] |  |  |  | 59% | 78% | 100%
CC(Cc1ccc(F)cc1)C(O)(Cn1cncn1)c1ccc(F)cc1F (centres unmarked) [Compound No. 1] |  |  |  | 71% | 85% | 80%
CC(Cc1ccc(OC(F)(F)F)cc1)C(O)(Cn1cncn1)c1ccc(F)cc1F (centres unmarked) [Compound No. 10] |  |  |  |  |  | 100%
CC(CCCc1ccc(Cl)cc1)C(O)(Cn1cncn1)c1ccc(F)cc1F (centres unmarked) [compound 2] |  |  |  | 60% | 76% | 80%
CC(CCCc1ccc(Cl)cc1)C(O)(Cn1cncn1)c1ccc(F)cc1F (centres unmarked) [compound 3] | 58% | 74% | 60% |  |  | 
CC(CSc1ccc(F)cc1)C(O)(Cn1cncn1)c1ccc(F)cc1 (centres unmarked) [compound 4, 1-triazolyl-2-(4-fluorophenyl)-3-methyl-4-(4-fluorophenyl)-mercapto-2-butanol] |  |  |  | 6% | 72% | 0%
CC(CSc1nccn1C)C(O)(Cn1cncn1)c1ccc(F)cc1 (centres unmarked) [compound 5] |  |  |  | 5% | 10% | 0%
CC(Cc1ccc(C#N)cc1)C(O)(Cn1cncn1)c1ccc(F)cc1F (centres unmarked) [compound 7, 1-triazolyl-2-(2,4-difluorophenyl)-3-methyl-4-(4-cyanophenyl)-2-butanol] |  |  |  | 53% | 74% | 100%
CC(Cn1cncn1)C(O)(Cn1cncn1)c1ccc(F)cc1 (centres unmarked) [compound 14] |  |  |  | 2% | 20% | 20%
CC(Cc1ccc(-n2cncn2)cc1)C(O)(Cn1cncn1)c1ccc(F)cc1F (centres unmarked) [compound 15] |  |  | 100% | 53% | 66% | 
CC(Cc1ccc(-n2cncn2)cc1)C(O)(Cn1cncn1)c1ccc(F)cc1F (centres unmarked) [compound 16] |  |  | 100% |  |  | 
CC(Cc1ccc(-n2cncn2)cc1)C(O)(Cn1cncn1)c1ccc(F)cc1F (centres unmarked) [compound 17] |  |  | 60% |  |  | 
CC(Cc1cccnc1)C(O)(Cn1cncn1)c1ccc(F)cc1F (centres unmarked) [compound 18] |  |  |  |  |  | 40%
CC(Cc1ccc(Cl)cc1SC(F)F)C(O)(Cn1cncn1)c1ccc(F)cc1F (centres unmarked) [compound 20] |  |  |  | 53% | 68% | 100%
CC(Cc1ccc([N+](=O)[O-])cc1)C(O)(Cn1cncn1)c1ccc(F)cc1F (centres unmarked) [compound 22] |  |  |  | 58% | 70% | 100%
CC(CCc1ccc(F)cc1)C(O)(Cn1cncn1)c1ccc(F)cc1F (centres unmarked) [compound 25] |  |  |  | 60% | 70% | 
CC(Cc1ccc(C=NNC=O)cc1)C(O)(Cn1cncn1)c1ccc(F)cc1F (centres unmarked) [compound 27] |  |  |  |  |  | 40%
CC(Cc1ccc(Cl)cc1Cl)C(O)(Cn1cncn1)c1ccc(F)cc1F (centres unmarked) [compound 28] |  |  |  |  |  | 100%
CC(Cc1ccc(S(C)(=O)=O)cc1)C(O)(Cn1cncn1)c1ccc(F)cc1F (centres unmarked) [compound 30] |  |  |  | 6% | 63% | 100%
CC(Cc1ccc(-n2cnn(C)c2=O)cc1)C(O)(Cn1cncn1)c1ccc(F)cc1F (centres unmarked) [compound 31] |  |  |  |  |  | 80%
CC(Cc1ccc(F)cc1F)C(O)(Cn1cncn1)c1ccc(F)cc1F (centres unmarked) [compound 32] |  |  |  |  |  | 80%
CC(CCc1ccc(C#N)cc1)C(O)(Cn1cncn1)c1ccc(F)cc1F (centres unmarked) [compound 35] |  |  |  | 60% | 74% | 
CC(CCc1ccc(-n2cncn2)cc1)C(O)(Cn1cncn1)c1ccc(F)cc1F (centres unmarked) [compound 37, 2-(2,4-difluorophenyl)-3-methyl-5-(4-triazolphenyl)-1-triazolyl-pentan-2-ol] |  |  |  |  |  | 80%
CSc1cc(Cl)ccc1CC(C)C(O)(Cn1cncn1)c1ccc(F)cc1F (centres unmarked) [compound 39] |  |  |  | 53% | 68% | 100%
CC(Cc1ccc(C(F)(F)F)cc1)C(O)(Cn1cncn1)c1ccc(F)cc1F (centres unmarked) [compound 43] |  |  |  |  |  | 100%
